Test results published in patent US8815882B2, “Pyrazole aminopyrimidine derivatives as LRRK2 modulators” (Genentech, Inc., priority 2010, dated 2014).
Read-outs that look alike come from different tables or passages of the source.

Biological target: T1, LRRK2 (Homo sapiens, UniProt Q5S007, G2019S)
T1 construct: purchased Invitrogen PV4882 (lot 567054A)
Assay: In Vitro LRRK2 Assay (LabChip 3000, fluorescently-labeled peptide substrate, ATP)
Format: biochemical
In short: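 LRRK2, fluorescent peptide substrate (diluted to 4 μM before mixing), ATP and compound were incubated 2 h in the dark, then stopped. Phosphorylated and unphosphorylated peptide were separated by capillary electrophoresis and quantified by fluorescence. Ki was fitted with a tight-binding equation including enzyme concentration, S and Km; IC50 or percent inhibition were also reported.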

[1] = Table 9, LRRK2 Ki (micromolar), read-out: LRRK2 Ki (KI)
[2] = Table 10, LRRK2 Ki (micromolar), read-out: LRRK2 Ki (KI)
[3] = read-out: LRRK2 Ki (KI), Table 8
[4] = read-out: LRRK2 Ki (KI), Table 7

T1 sequence (Q5S007 whole entry G2019S): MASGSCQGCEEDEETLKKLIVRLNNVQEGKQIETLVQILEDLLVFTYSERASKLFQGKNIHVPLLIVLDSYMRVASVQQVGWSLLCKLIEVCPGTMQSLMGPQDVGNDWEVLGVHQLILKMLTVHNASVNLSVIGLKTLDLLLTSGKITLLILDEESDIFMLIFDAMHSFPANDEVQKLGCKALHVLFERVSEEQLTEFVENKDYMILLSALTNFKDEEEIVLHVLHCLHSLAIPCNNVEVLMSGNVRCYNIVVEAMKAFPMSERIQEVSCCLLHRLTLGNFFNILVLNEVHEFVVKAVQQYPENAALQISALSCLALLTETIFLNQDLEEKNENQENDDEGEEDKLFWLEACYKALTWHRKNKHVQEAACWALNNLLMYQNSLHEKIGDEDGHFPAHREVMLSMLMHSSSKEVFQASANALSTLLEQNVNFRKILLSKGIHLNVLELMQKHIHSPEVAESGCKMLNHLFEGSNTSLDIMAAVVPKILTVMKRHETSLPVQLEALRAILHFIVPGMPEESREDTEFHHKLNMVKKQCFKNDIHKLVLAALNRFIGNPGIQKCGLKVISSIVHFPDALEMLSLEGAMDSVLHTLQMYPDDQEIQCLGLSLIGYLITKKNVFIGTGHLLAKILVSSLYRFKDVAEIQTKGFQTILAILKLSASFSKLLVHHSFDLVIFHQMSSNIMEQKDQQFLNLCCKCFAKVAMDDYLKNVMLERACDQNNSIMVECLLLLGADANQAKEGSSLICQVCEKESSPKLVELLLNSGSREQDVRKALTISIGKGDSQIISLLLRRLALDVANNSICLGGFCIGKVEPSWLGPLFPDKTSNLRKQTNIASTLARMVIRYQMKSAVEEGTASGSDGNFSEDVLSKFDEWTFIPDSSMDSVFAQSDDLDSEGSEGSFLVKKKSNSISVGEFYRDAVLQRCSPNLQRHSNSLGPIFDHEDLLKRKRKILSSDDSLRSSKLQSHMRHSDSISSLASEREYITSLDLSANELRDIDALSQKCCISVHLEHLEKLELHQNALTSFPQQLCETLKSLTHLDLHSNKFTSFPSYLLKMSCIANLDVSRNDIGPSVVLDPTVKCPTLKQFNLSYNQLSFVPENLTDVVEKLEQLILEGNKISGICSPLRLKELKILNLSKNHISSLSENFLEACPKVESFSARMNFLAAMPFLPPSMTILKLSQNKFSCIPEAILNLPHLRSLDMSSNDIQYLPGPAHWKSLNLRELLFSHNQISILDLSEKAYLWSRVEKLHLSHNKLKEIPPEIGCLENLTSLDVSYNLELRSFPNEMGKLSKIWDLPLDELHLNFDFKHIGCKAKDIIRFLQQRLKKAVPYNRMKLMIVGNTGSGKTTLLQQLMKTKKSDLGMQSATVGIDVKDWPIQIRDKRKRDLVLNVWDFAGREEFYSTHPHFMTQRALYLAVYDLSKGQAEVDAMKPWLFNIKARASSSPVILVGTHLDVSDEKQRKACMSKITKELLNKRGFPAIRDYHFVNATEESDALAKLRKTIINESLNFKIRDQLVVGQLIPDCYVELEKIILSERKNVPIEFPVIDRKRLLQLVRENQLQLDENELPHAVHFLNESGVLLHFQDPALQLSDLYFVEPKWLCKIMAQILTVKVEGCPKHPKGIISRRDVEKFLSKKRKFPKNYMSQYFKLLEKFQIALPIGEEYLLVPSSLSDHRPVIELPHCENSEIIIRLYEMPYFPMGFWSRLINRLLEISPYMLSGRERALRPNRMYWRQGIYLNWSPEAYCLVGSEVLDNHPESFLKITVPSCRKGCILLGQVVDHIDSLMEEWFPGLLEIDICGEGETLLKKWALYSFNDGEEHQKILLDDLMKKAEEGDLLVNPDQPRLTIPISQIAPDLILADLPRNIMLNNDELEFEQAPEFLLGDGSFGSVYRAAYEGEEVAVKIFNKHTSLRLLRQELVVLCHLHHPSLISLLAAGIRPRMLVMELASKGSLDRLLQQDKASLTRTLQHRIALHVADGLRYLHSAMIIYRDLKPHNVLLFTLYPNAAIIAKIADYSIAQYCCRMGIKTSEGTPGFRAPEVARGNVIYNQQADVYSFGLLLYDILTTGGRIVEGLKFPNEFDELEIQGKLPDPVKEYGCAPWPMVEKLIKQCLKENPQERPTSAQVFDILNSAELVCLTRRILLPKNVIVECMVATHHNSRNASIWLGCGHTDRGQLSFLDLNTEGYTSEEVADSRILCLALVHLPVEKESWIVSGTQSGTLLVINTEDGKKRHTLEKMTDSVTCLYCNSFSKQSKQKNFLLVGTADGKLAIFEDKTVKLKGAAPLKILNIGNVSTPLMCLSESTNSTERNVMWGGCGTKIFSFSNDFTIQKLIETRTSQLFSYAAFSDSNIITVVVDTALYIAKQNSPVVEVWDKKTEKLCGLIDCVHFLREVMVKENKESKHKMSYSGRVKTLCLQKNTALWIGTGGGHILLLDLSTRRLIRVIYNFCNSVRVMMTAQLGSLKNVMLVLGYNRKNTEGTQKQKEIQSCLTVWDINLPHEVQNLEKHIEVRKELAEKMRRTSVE

In the case of `CNc1nc(Nc2cn(C(C)C)nc2C)ncc1C#N` [Example 352, 2-(1-isopropyl-3-methyl-1H-pyrazol-4-ylamino)-4-(methylamino) pyrimidine-5-carbonitrile], the Ki [1] is reported as 48 nM.
For `CCNc1nc(Nc2cn(C(C)(C)C(=O)NC)nc2C)ncc1C(F)(F)F` [Example 453, 2-[4-(4-Ethylamino-5-trifluoromethyl-pyrimidin-2-ylamino)-3-methyl-pyrazol-1-yl]-N-methyl-isobutyramide], the Ki [2] was 9.2 nM.
`CCNc1nc(Nc2cnn(CC(C)(C)O)c2Cl)ncc1C(F)(F)F` [Example 234, 1-(5-chloro-4-(4-(ethylamino)-5-(trifluoromethyl)pyrimidin-2-ylamino)-1H-pyrazol-1-yl)-2-methylpropan-2-ol] showed a Ki [3] of 3.1 nM.
Molecule `CNc1nc(Nc2cnn(C[C@H](C)OC)c2C)ncc1C(F)(F)F` [Example 187, (S)-N2-(1-(2-methoxypropyl)-5-methyl-1H-pyrazol-4-yl)-N4-methyl-5-(trifluoromethyl) pyrimidine-2,4-diamine] has a Ki [3] of 18.8 nM.
For `CNc1nc(Nc2cnn(C3CCN(C)CC3)c2C)ncc1C(F)(F)F` [Example 210, N4-methyl-N2-(5-methyl-1-(1-methylpiperidin-4-yl)-1H-pyrazol-4-yl)-5-(trifluoromethyl) pyrimidine-2,4-diamine], the Ki [3] was 7.1 nM.
`CCNc1nc(Nc2ccnn2C)ncc1C(F)(F)F` [Example 176, N4-ethyl-N2-(1-methyl-1H-pyrazol-5-yl)-5-(trifluoromethyl) pyrimidine-2,4-diamine] showed a Ki [3] of 11 nM.
`CCNc1nc(Nc2cn(C3CCC(=O)NC3)nc2C)ncc1C(F)(F)F` (stereo not shown) [Example 262, 5-[4-(4-Ethylamino-5-trifluoromethyl-pyrimidin-2-ylamino)-3-methyl-pyrazol-1-yl]-piperidin-2-one] showed a Ki [3] of 1.3 nM.
Molecule `CCNc1nc(Nc2cnn(C3CCN(CC4OCCO4)C3)c2C)ncc1C(F)(F)F` (stereo not shown) [Example 328, N2-[1-(1-[1,3]Dioxolan-2-ylmethyl-pyrrolidin-3-yl)-5-methyl-1H-pyrazol-4-yl]-N4-ethyl-5-trifluoromethyl-pyrimidine-2,4-diamine] has a Ki [3] of 0.4 nM.
For `CNc1nc(Nc2cn(C)nc2C2CC2)ncc1C(F)(F)F` [Example 177, N2-(3-cyclopropyl-1-methyl-1H-pyrazol-4-yl)-N4-methyl-5-(trifluoromethyl) pyrimidine-2,4-diamine], the Ki [3] was 6.7 nM.
Work on `CCNc1nc(Nc2cn(C3CCC(=O)N(C)C3)nc2C)ncc1C(F)(F)F` (stereo not shown) [Example 152, 5-(4-(4-(ethylamino)-5-(trifluoromethyl)pyrimidin-2-ylamino)-3-methyl-1H-pyrazol-1-yl)-1-methylpiperidin-2-one] yielded a Ki [3] of 7.3 nM.
With `CNc1nc(Nc2cnn(C)c2N(C)C)ncc1C(F)(F)F` [Example 247, N2-(5-(dimethylamino)-1-methyl-1H-pyrazol-4-yl)-N4-methyl-5-(trifluoromethyl) pyrimidine-2,4-diamine] the Ki [3] was 77.9 nM.
Molecule `CNc1nc(Nc2cnn(CC(C)(C)C#N)c2Cl)ncc1C(F)(F)F` [Example 313, 3-[5-Chloro-4-(4-methylamino-5-trifluoromethyl-pyrimidin-2-ylamino)-pyrazol-1-yl]-2,2-dimethyl-propionitrile] has a Ki [3] of 1.7 nM.
For `CNc1nc(Nc2cnn(C[C@@H](C)OC)c2C)ncc1C(F)(F)F` [Example 192, (R)-N2-(1-(2-methoxypropyl)-5-methyl-1H-pyrazol-4-yl)-N4-methyl-5-(trifluoromethyl) pyrimidine-2,4-diamine], the Ki [3] was 6.3 nM.
With `CCNc1nc(Nc2cn(C(C)(C)c3nnc(C)o3)nc2C)ncc1C(F)(F)F` [Example 336, N4-ethyl-N2-(3-methyl-1-(2-(5-methyl-1,3,4-oxadiazol-2-yl)propan-2-yl)-1H-pyrazol-4-yl)-5-(trifluorometliyl) pyrimidine-2,4-diamine] the Ki [3] was 1.2 nM.
`CNc1nc(Nc2cn(-c3ccncc3C)nc2C)ncc1C(F)(F)F` [Example 269, N4-Methyl-N2-[3-methyl-1-(3-methyl-pyridin-4-yl)-1H-pyrazol-4-yl]-5-trifluoromethyl-pyrimidine-2,4-diamine] gave a Ki [3] of 9.1 nM.
`CNc1nc(Nc2cnn(Cc3cnccn3)c2C)ncc1C(F)(F)F` [Example 316, N4-Methyl-N2-(5-methyl-1-pyrazin-2-ylmethyl-1H-pyrazol-4-yl)-5-trifluoromethyl-pyrimidine-2,4-diamine] showed a Ki [3] of 2.6 nM.
For `CNc1nc(Nc2cnn([C@H](C)C(=O)N3CCCC3)c2C)ncc1C(F)(F)F` [Example 411, (R)-2-(5-methyl-4-(4-(methylamino)-5-(trifluoromethyl)pyrimidin-2-ylamino)-1H-pyrazol-1-yl)-1-(pyrrolidin-1-yl)propan-1-one], the Ki [2] was 39 nM.
For `COC(=O)C(C)(C)n1ncc(Nc2ncc(Cl)c(OC)n2)c1C` [Example 434, 2-[4-(5-Chloro-4-methoxy-pyrimidin-2-ylamino)-5-methyl-pyrazol-1-yl]-2-methyl-propionic acid methyl ester], the Ki [2] was 12.2 nM.
With `CNc1nc(Nc2cn(C3CCCC3OC)nc2C)ncc1C(F)(F)F` (stereo not shown) [Example 188, N2-(1-(2-methoxycyclo-pentyl)-3-methyl-1H-pyrazol-4-yl)-N4-methyl-5-(trifluoromethyl) pyrimidine-2,4-diamine] the Ki [3] was 12 nM.
In the case of `CNc1nc(Nc2cnn(C(C)(C)C(=O)NC(C)(C)C)c2C)ncc1C(F)(F)F` [Example 447, N-tert-Butyl-2-[5-methyl-4-(4-methylamino-5-trifluoromethyl-pyrimidin-2-ylamino)-pyrazol-1-yl]-isobutyramide], the Ki [2] is reported as 67 nM.
`CCNc1nc(Nc2cn(C(C)(C)CN3CCOCC3)nc2C)ncc1C(F)(F)F` [Example 298, N2-[1-(1,1-Dimethyl-2-morpholin-4-yl-ethyl)-3-methyl-1H-pyrazol-4-yl]-N4-ethyl-5-trifluoromethyl-pyrimidine-2,4-diamine] showed a Ki [3] of 50.6 nM.
In the case of `CNc1nc(Nc2cn(Cc3cccnn3)nc2C)ncc1C(F)(F)F` [Example 310, N4-Methyl-N2-(3-methyl-1-pyridazin-3-ylmethyl-1H-pyrazol-4-yl)-5-trifluoromethyl-pyrimidine-2,4-diamine], the Ki [3] is reported as 9.3 nM.
For `CNc1nc(Nc2cn(C[C@@H](C)OC)nc2C)ncc1C(F)(F)F` [Example 270, N2-[1-((R)-2-Methoxy-propyl)-3-methyl-1H-pyrazol-4-yl]-N4-methyl-5-trifluoromethyl-pyrimidine-2,4-diamine], the Ki [3] was 17 nM.
`CNC(=O)Cn1ncc(Nc2ncc(C(F)(F)F)c(NC)n2)c1C` [Example 398, N-methyl-2-(5-methyl-4-(4-(methylamino)-5-(trifluoromethyl)pyrimidin-2-ylamino)-1H-pyrazol-1-yl)acetamide] showed a Ki [2] of 3 nM.
Work on `CNc1nc(Nc2cnn(C(F)F)c2C)ncc1C#N` [Example 384, 2-(1-Difluoromethyl-5-methyl-1H-pyrazol-4-ylamino)-4-methylamino-pyrimidine-5-carbonitrile] yielded a Ki [1] of 19.1 nM.
Work on `CNc1nc(Nc2cn(Cc3ncccn3)nc2C)ncc1C(F)(F)F` [Example 304, N4-Methyl-N2-(3-methyl-1-pyrimidin-2-ylmethyl-1H-pyrazol-4-yl)-5-trifluoromethyl-pyrimidine-2,4-diamine] yielded a Ki [3] of 5.1 nM.
`CNc1nc(Nc2cnn(C(C)(C)c3cnn(C)c3)c2C)ncc1C(F)(F)F` [Example 341, N4-methyl-N2-(5-methyl-1-(2-(1-methyl-1H-pyrazol-4-yl)propan-2-yl)-1H-pyrazol-4-yl)-5-(trifluoromethyl) pyrimidine-2,4-diamine] showed a Ki [3] of 6.1 nM.
Molecule `Cc1c(Nc2ncc(Cl)c(OCC(F)(F)F)n2)cnn1C` [Example 64, 5-chloro-N-(1,5-dimethyl-1H-pyrazol-4-yl)-4-(2,2,2-trifluoroethoxy) pyrimidin-2-amine] has a Ki [4] of 58.6 nM.
Work on `CNc1nc(Nc2cnn(CC3(C)COC3)c2C)ncc1C(F)(F)F` [Example 179, N4-methyl-N2-(5-methyl-1-((3-methyloxetan-3-yl)methyl)-1H-pyrazol-4-yl)-5-(trifluoromethyl) pyrimidine-2,4-diamine] yielded a Ki [3] of 9 nM.
With `COc1nc(Nc2cn(-c3ccncc3C)nc2C)ncc1Cl` [Example 69, 5-chloro-4-methoxy-N-(3-methyl-1-(3-methylpyridin-4-yl)-1H-pyrazol-4-yl)pyrimidin-2-amine] the Ki [4] was 55 nM.
With `COc1nc(Nc2cnn(C3CCN(CCF)CC3)c2C)ncc1Cl` [Example 292, (5-Chloro-4-methoxy-pyrimidin-2-yl)-{1-[1-(2-fluoro-ethyl)-piperidin-4-yl]-5-methyl-1H-pyrazol-4-yl}-amine] the Ki [3] was 4.2 nM.
`CNc1nc(Nc2cn(C3CCCOC3)nc2C)ncc1C(F)(F)F` (stereo not shown) [Example 230, N4-methyl-N2-(3-methyl-1-(tetrahydro-2H-pyran-3-yl)-1H-pyrazol-4-yl)-5-(trifluoromethyl) pyrimidine-2,4-diamine] gave a Ki [3] of 9.6 nM.
Work on `COc1nc(Nc2cn(-c3ccccc3)nc2C)ncc1Cl` [Example 76, (5-Chloro-4-methoxy-pyrimidin-2-yl)-(3-methyl-1-phenyl-1H-pyrazol-4-yl)-amine] yielded a Ki [4] of 2.3 nM.
In the case of `CNc1nc(Nc2cn(-c3cc(F)cc(F)c3)nc2C)ncc1C#N` [Example 367, 2-(1-(3,5-difluorophenyl)-3-methyl-1H-pyrazol-4-ylamino)-4-(methylamino) pyrimidine-5-carbonitrile], the Ki [1] is reported as 1.8 nM.
For `CCS(=O)(=O)n1cc(Nc2ncc(C(F)(F)F)c(NC)n2)c(C)n1` [Example 249, N^2-(1-(ethylsulfonyl)-3-methyl-1H-pyrazol-4-yl)-N4-methyl-5-(trifluoromethyl) pyrimidine-2,4-diamine], the Ki [3] was 3.3 nM.
`CNc1nc(Nc2cnn(C3(C#N)CCC3)c2C)ncc1C(F)(F)F` [Example 446, 1-[5-Methyl-4-(4-methylamino-5-trifluoromethyl-pyrimidin-2-ylamino)-pyrazol-1-yl]-cyclobutane-carbonitrile] showed a Ki [2] of 2.4 nM.
`CNc1nc(Nc2cnn(C)c2C2CCC2)ncc1C(F)(F)F` [Example 229, N2-(5-cyclobutyl-1-methyl-1H-pyrazol-4-yl)-N4-methyl-5-(trifluoromethyl) pyrimidine-2,4-diamine] showed a Ki [3] of 11 nM.
